Assay results published in patent US9771563B2, “Chemical approaches for generation of induced pluripotent stem cells” (The Scripps Research Institute, priority 2008, dated 2017).

Experiments:
[1] = test system: mouse embryonic fibroblasts (129 or OG2 MEFs); assay: Screen for iPSC generation from MEFs transduced with Oct4/Klf4 (OK); type: cell-based; conditions: for hit in second synergist screen: OK-transduced MEFs, 1 μM BIX in medium, compound 0.5-2 μM, not followed up
Protocol: Unmodified MEFs derived from E13-14 embryos of the 129 mice were used for the initial screen. MEFs were plated on Matrigel at 3.5×10^4 cells/well of a 6-well plate and transduced with OK (retroviral vectors expressing Oct4 and Klf4) alone. Within 14-21 days, treated cells were assessed for the appearance of colonies that had the characteristic embryonic stem cell (ESC) colony morphology and were positive for the pluripotency marker alkaline phosphatase (ALP). Such OK-transduced cells generated only a few small non-compact colonies, which were weakly positive for ALP expression. These colonies initially appeared within 21 days after viral transduction and were difficult to expand. Therefore, such assay system offered a clean background for the identification of small molecules having desirable reprogramming inducing activity. Using this system, compounds from a library of around 2000 known small molecules (see Experimental Procedures below) were screened and were identified as hits when they induced the appearance of ESC colonies that were strongly positive for ALP within 14-21 days after treatment. This image-based method provided a more accurate assessment of reprogramming as compared to homogenous reporter-based assay. BIX appeared to have the strongest effect with reproducible induction of more than 1-2 compact ESC-like colonies with high ALP expression. We observed that when MEFs were treated with BIX after OK viral transduction, compact colonies with strong ALP expression could be readily detected within approximately 14-21 days. These cells were also positive for Nanog, Oct4 and SSEA-1 expression. […] However, the reprogramming efficiency in MEFs transduced with OK and treated with BIX was still low, about 2 colonies/3.5×10^4 cells, in comparison to the four factor-induced reprogramming of MEFs or the OK/BIX NPC reprogramming (Shi, Y. et al., Cell Stem Cell, 2:525-528 (2008)). Therefore, we conducted a second screen using a similar protocol, but where BIX was added to the basal media after OK viral transduction. This provided a more permissive platform to identify new small molecules that could further improve reprogramming efficiency. More importantly, this second screen could facilitate discovery of small molecules that impact reprogramming in a more specific manner, for example by acting on signal transduction pathways rather than on histone or DNA modifying enzymes. In this second screen, we again assayed the library of around 2000 known small molecules (see Experimental Procedures), and confirmed two compounds that were able to act in a synergistic manner with BIX to improve reprogramming based on the criteria of the screen. […] Therefore, RG108 was not pursued further for this study. Instead, we focused our phenotypic and functional characterization on another small molecule that was identified in the second screen, BayK, an L-calcium channel agonist. […] Therefore, BayK might play a more specific role in the reprogramming process. When 129 MEFs were transduced with empty retrovirus (negative control); no colonies observed. When 129 MEFs were transduced with OK without small molecules; few small flattened colonies with weak ALP expression present. […] When OK-transduced MEFs were treated with BIX in combination with BayK, a significant increase in the number of ALP^+ colonies that closely resemble the mESC morphology could be observed (˜7 colonies) as compared to OK-transduced MEFs treated with BIX alone (˜2 colonies).
Primary 12952/SvPasCrlf (primary screen) or ROSA26^+/−/OG2^+/− (secondary screen) MEFs were plated onto Matrigel (1:50; BD Biosciences, Bedford, Mass.) coated dishes at a density of 3.5×10^4 cells per well of a 6-well plate. Twenty-four hours later, these cells were transduced overnight with defined retroviruses at 37° C., 5% CO2. […] (all products were from Invitrogen, Carlsbad, Calif., except where mentioned). […]

[2] = test system: primary OG2 neural progenitor cells; assay: iPS cell induction from neural progenitor cells after retroviral transduction; type: cell-based, mouse; conditions: applied at late stage of reprogramming (after Oct4-GFP activation)
Protocol: The reporter neural progenitor cells were generated using a well established protocol by differentiating the Oct4-GiP mESCs grown in monolayer on gelatin in a chemically defined medium/CDM condition in the absence of serum and other growth factors/cytokines at low cell density for eight days, followed by neurophere formation and subsequent serial passaging in single cells in neural cell expansion media supplemented with 10 ng/ml of bFGF and EGF in monolayer for over six passages/24 days. The resulting neural progenitor cells were homogenous by cell morphology and neural marker expression, and were confirmed to be GFP negative and puromycin sensitive. Such neural progenitor cells plated in monolayer in conventional mESC growth media were transduced with combinations of four, three, or two of the four factors, followed by treating the transduced cells with individual small molecules from a small known drug collection in a typical 6-well format. The compound treatment and culture were continued for additional ten days before puromycin was added. The number of green and puro-resistant colonies was counted at day 14. In comparison to the only four-gene transduced neural cells as the positive control, compound conditions that generated more green colonies than the corresponding gene-only conditions were picked as primary hits. To further confirm these primary hit conditions, we chose to use a late passage of mouse CNS neural progenitor cells (Do, J. T. et al., Stem Cells 25, 1013-1020 (2007)) that were derived from fetal brain of OG2^+/−/ROSA26^+/− transgenic mice (which contain an Oct4-GFP reporter) and expanded in monolayer under the same neural CDM condition as the above with 10 ng/ml of bFGF and EGF. Such cells truly from a non-pluripotent tissue would be devoid of concerns of any contaminating ES cell in the above screening system, which is highly unlikely with all appropriate controls. Similar culture conditions and reprogramming assays were performed using the OG2 neural progenitor cells except that puromycin was not used and green colonies were picked out and characterized by staining of Nanog, SSEA1 and ALP.
mESC-derived or primary OG2 mouse neural progenitor cells were plated into Matrigel (1:50, BD Biosciences) coated 6-well plates at 3.5×10^4 cells/well in the neural progenitor cell expansion media. After one day these cells were transduced with retrovirus for overnight, and the medium was changed into the mESC growth media [DMEM, 5% FBS, 10% KSR, 1× non-essential amino acids (Gibco), 2 mM L-glutamine (Gibco), 0.1 mM β-mercaptoethanol (Gibco) and 10^3 unit/ml LIF (Chemicon)] with or without BIX01294 (0.5-1 μM). GFP-positive iPS cell colonies appeared after 9-14 days, and were picked out and expanded on MEF feeder cells with the mESC growth media.

mouse fibroblasts = assay: Reprogramming of mouse fibroblasts with exogenous poly-Arg transcription factor proteins; type: cell-based; conditions: cells incubated with transcription factor proteins plus agent
Protocol: Mouse fibroblasts were grown in mESC medium supplemented with 8 μg/ml of either Oct4/Sox2/Klf4 or Oct4/Sox2/Klf4/Myc (all proteins comprising poly-Arg as described above) for 6-8 hours, washed, and incubated for 2-3 days in mESC media without the above-listed transcription factors. This (4-12 hours with, 1-3 days without) was repeated a number (1, 2, 3, 4, or more) of times and then the cells were cultured in mESC for two weeks.
Mouse fibroblasts were grown in mESC growth medium [Knockout DMEM (Invitrogen) supplemented with 10% ES-FBS+10% KSR, 0.1 mM 2-ME, 1% Glutamax, 1% Non-essential amino acids, 1% EmbryoMax ESC Qualified Nucleosides (Millipore), and 10^3 units/ml LIF (ESGRO, Chemicon International)] supplemented with 8 μg/ml of Oct4/Sox2/Klf4/Myc (all four transcription factors are tagged with poly-Arg […]; SEQ ID NO:2) for 4-12 hours, followed by culturing the cells in the absence of the Oct4/Sox2/Klf4/Myc polypeptides for one day. This procedure was repeated 4 times. The cells were then cultured in mESC medium for another two weeks. iPSC clones were detected by colony morphology and expression of pluripotency markers. An intermediate iPSC clone, which expresses ALP but not Oct4 (Oct4), was dissociated with Trypsin-EDTA. The clone was then expanded by continuous culturing with regular mESC medium or medium supplemented with 0.5 μM PD0325901, 3 μM CHIR99021, 0.5 μM A-83-01. The number of Oct4-positive colonies were counted 2 weeks after small molecule treatment (FIG. 14).

[3] = test system: human primary fibroblasts (CRL2097 or BJ); assay: Reprogramming of human primary fibroblasts transduced with 4TFs; type: cell-based
Protocol: We tested known inhibitors of the TGFβ receptor and MEK on 1×10^4 [Feng, B. et al., Cell Stem Cell 4, 301-12 (2009)] human primary fibroblasts (CRL2097 or BJ) that were retrovirally transduced with the 4TFs (Oct4, Klf4, Sox2 and c-Myc), for their effects on reprogramming kinetics and efficiency. On day 7 (D7) post-infection, the compounds were added, individually or in combinations, and the cultures were examined for iPSCs over the next 1-3 weeks.
The Slc7a1-expressing human fibroblast cells were seeded at 1×10^5 cells/well of a 6 well plate on the day 1. On day 2, 0.25 ml of each retroviral supernatant was added to the cells in the presence of 6 μg/ml polybrene. A second round of transduction was done on day 3. Infection efficiency was estimated by fluorescence microscopy on cells transduced in parallel with GFP or RFP gene-carrying retroviruses. Seven days after initial transduction, fibroblasts were harvested by trypsinization and re-plated at 1×10^4 cells/well of a 6 well plate coated with matrigel (1:50 dilution, cat 354234, BD Biosciences). For compound treatment, the cells were cultured in human reprogramming medium (DMEM/F12, 20% Knockout serum replacer, lx MEM Non-Essential amino acid, lx glutamax, 0.11 mM 2-Mercaptoethanol, 20 ng/ml bFGF and 1,000 U/ml LIF) and were treated with 2 μM SB431542 (Stemgent), 0.5 μM PD0325901 (Stemgent), or combinations of the compounds. The media were changed every 2-3 days depending on the cell density. Seven days after compound treatment, either the plates were fixed and stained for Alkaline phosphatase (ALP) activity, or stained for protein markers, or the cultures were continued with or without indicated splitting by trypsinization till day 30. For split cultures, the cells were split (1:4) and re-plated onto irradiated CF-1 MEF feeder layer (2.5×10^5 cells/well) in each well of 6 well plate and were split (1:10) again on day 21. The cells were maintained in the same media and compound cocktail described above except for the concentrations of PD0325901 (0.5 μM for D14 and 1 μM for D21) and SB431542 (0.5-1 μM after D14). The iPSC colonies were subsequently maintained in conventional hESC media in the absence of the above compounds.
Alkaline phosphatase staining was performed using ALP detection kit (cat no: SCR004, Chemicon) according to the product instructions. For immunocytochemistry, cells were fixed in 4% paraformaldehyde (10 min, RT), washed twice with PBS, blocked using 5% normal donkey serum (Chemicon) and 0.1% TritonX-100 (15 min, RT) and then treated with primary antibodies overnight at 4° C. The primary antibodies used were anti-NANOG (cat no: AB9220, Chemicon, 1:1,000); anti-OCT4 (cat no: sc-5279, Santa Cruz biotech, 1:200), anti-SSEA 4 (cat no: mab4304, Chemicon, 1:500), anti-Tra-1-81 (cat 560123, BD Biosciences, 1:100), anti-Tra-1-81 (mAb 4381, Chemicon, 1:500), anti-βIII TUBULIN (cat no: MMS-435P, Covance Research Products Inc, 1:1000), anti-PDX 1 (1:500) (a kind gift from Dr. C. Wright), anti-BRACHYURY (cat No: AF2085, R & D, final concentration 0.2 μg/ml). The cells were washed twice with PBS and then treated with secondary antibodies for 1 hour at room temperature. The secondary antibodies used were Alexa fluor 488 donkey anti-rabbit or anti-mouse IgG (Invitrogen, 1:1,000) and Alexa fluor 555 donkey anti-rabbit or anti-mouse IgG (Invitrogen, 1:1,000). Nuclei were stained with 0.5 μg/ml DAPI (Sigma). Images were captured using a Nikon Eclipse TE2000-U/X-cite 120 EXFO microscope with a photometric CoolSnap HQ2 camera.
We tested the TGFβ receptor inhibitor (SB431542), MEK inhibitor (PD0325901) and GSK-3 inhibitor (CHIR99021), on human fibroblast crl2097 that were retrovirally transduced with Oct4, Klf4, Sox2 and c-Myc, for their effects on reprogramming kinetics and efficiency. Conditions are the same as set forth in Example 5. Data were collected 8 days after compound treatment.

Question: For CCN(CC)CCCCNc1ncc2cc(-c3cc(OC)cc(OC)c3)c(NC(=O)NC(C)(C)C)nc2n1 [PD173074], which “hit in second synergist screen” value [1] is on record?
Answer: Its value is “primary hits”.

Question: How did the “growth of non-iPS cells and iPS cells (selection)” value [2] turn out when O=C(NOC[C@H](O)CO)c1ccc(F)c(F)c1Nc1ccc(I)cc1F [PD0325901] was run?
Answer: Its value is “inhibits growth of non-iPS cells while it effectively promotes growth and stable reprogramming of iPS cells”.

Question: And the “efficiency and speed of development of pluripotent cells” value (mouse fibroblasts)?
Answer: The value was “improved efficiency and speed of development of pluripotent cells”.

Question: What about the “ALP+ colonies with hESC-like morphology (FIG. 7A)” value ([3]; 4TFs transduced fibroblasts, 7 days after compound treatment, SB431542 at 2 μM) of the same compound?
Answer: The value was “yielded none”.

Question: And the “colonies stained positive for SSEA4 and NANOG” value ([3]; day 7 post-treatment (D14))?
Answer: The value was “no NANOG^+ colonies were observed”.

Question: Which “reprogramming of OK transduced MEFs (second screen)” value ([1]; in the presence of BIX) does the source give for O=C(O)C(Cc1c[nH]c2ccccc12)N1C(=O)c2ccccc2C1=O (stereo not drawn) [RG108] here?
Answer: The value was “enhanced reprogramming of OK transduced MEFs in the presence of BIX”.

Question: Which “hit in second synergist screen” value [1] does the source give for Cc1cc(Nc2ncc3c(n2)N(C)C(=O)N(c2cc(NC(=O)c4cccc(C(F)(F)F)c4)ccc2C)C3)n(C)n1 [pluripotin] here?
Answer: Its value is “primary hits”.

Question: With c1nc2nc(Nc3ccc(N4CCOCC4)cc3)nc(NC3CCCCC3)c2[nH]1 [reversine] as the compound, how does the “hit in second synergist screen” value [1] read?
Answer: Its value is “primary hits”.

Question: For TGFβ, which “effect on 4 factor-mediated reprogramming of fibroblasts” value ([3]; addition of TGFβ) is on record?
Answer: The value was “had an inhibitory effect on 4 factor-mediated reprogramming of fibroblasts”.
